Calls of active or inactive are those of the source.
Columns and labels:
Protein skinhead-1 = molecular target: T1, Protein skinhead-1 (Caenorhabditis elegans, UniProt P34707); assay type: functional
T1 sequence (P34707 whole entry): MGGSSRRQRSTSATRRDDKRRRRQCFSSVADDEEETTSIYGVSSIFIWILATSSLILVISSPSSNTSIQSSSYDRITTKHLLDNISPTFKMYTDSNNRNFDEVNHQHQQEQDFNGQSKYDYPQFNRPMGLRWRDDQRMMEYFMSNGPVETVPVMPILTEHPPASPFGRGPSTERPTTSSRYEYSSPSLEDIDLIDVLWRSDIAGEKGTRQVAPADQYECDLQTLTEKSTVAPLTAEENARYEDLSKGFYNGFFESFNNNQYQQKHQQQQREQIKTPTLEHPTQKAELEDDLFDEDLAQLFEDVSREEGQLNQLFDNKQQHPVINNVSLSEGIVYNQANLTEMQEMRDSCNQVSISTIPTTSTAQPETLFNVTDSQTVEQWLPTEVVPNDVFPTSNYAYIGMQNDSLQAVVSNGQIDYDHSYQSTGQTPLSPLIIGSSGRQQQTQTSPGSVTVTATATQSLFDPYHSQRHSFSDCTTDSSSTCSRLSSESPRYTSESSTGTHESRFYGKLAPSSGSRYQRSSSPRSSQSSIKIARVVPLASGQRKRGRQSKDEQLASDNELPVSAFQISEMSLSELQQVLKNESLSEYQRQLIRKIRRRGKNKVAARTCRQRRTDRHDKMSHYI

[1] = molecular target: FAD-linked sulfhydryl oxidase ALR (Homo sapiens, UniProt P55789); test: ALR-catalysed DTT oxidation blockers – biochemical, H2O2 detection, luminescence, cherry-pick, dose response (AID 493248)
[2] = molecular target: T2, Short transient receptor potential channel 4 (Mus musculus, UniProt Q9QUQ5); test: calcium entry via TRPC4 opening agents – cell-based, HEK293 TRPC4/mu-opioid, Fluo-4 calcium, dose response (AID 434937); assay type: functional
T2 sequence (Q9QUQ5 whole entry): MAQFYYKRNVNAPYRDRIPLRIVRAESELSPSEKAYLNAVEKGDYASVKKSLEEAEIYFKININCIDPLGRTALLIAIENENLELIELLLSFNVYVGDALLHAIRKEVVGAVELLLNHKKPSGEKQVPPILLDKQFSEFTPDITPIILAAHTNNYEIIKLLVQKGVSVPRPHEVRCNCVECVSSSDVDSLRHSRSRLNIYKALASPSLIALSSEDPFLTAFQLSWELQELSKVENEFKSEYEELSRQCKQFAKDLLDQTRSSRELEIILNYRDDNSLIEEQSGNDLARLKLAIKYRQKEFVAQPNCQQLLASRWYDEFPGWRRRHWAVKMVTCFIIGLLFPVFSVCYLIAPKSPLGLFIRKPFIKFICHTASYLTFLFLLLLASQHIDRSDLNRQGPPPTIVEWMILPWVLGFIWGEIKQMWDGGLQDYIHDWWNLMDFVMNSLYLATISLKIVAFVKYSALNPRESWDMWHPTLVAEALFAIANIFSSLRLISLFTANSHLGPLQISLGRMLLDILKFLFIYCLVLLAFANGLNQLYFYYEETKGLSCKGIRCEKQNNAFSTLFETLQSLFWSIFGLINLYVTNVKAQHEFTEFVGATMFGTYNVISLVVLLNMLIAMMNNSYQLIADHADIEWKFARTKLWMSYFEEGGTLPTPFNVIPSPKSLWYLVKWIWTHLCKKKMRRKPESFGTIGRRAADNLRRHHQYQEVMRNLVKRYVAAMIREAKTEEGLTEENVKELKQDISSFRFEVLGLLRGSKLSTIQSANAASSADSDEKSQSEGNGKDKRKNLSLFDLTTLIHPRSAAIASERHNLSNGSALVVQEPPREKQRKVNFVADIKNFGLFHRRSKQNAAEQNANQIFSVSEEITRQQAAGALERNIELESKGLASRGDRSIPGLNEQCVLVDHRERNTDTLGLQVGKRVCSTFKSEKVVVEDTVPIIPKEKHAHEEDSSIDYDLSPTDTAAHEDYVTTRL

[3] = molecular target: T3, Rac GTPase-activating protein 1 (Homo sapiens, UniProt Q9H0H5); test: blockers of MgcRacGAP-driven Rac1 GTP hydrolysis – biochemical, ADP Hunter fluorescence, primary and confirmatory, confirmation (AID 624330); assay type: functional
T3 sequence (Q9H0H5 whole entry): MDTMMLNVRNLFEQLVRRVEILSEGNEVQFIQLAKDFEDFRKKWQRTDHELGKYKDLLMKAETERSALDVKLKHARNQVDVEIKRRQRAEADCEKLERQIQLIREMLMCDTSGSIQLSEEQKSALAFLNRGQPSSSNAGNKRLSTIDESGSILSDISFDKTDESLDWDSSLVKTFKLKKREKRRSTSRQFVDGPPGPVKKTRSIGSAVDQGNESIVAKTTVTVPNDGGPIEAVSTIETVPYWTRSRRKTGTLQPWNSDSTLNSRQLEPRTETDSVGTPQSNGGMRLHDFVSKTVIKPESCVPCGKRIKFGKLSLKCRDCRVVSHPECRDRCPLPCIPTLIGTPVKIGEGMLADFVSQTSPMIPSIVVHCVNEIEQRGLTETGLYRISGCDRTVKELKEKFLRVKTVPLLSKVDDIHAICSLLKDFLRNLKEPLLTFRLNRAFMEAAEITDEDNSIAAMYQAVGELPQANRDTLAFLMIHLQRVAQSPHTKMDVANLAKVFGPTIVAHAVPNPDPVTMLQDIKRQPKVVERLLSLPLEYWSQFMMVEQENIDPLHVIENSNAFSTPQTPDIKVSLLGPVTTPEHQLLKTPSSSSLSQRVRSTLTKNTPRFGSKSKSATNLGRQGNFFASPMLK

[4] = Luminescence Cell-Based Dose Response HTS to Identify Inhibitors of 5'UTR Stem-Loop Driven Prion Protein mRNA Translation in H4 Neuroglioblastoma Cells. [Related pubchem assays: 1827 (Project Summary), 1813 (Primary HTS)]; assay type: functional
[5] = loss of viability in HepG2 cells – cell-based, CellTiter-Glo, cherry-picked, cytotoxicity control for Shn3 inhibitor project, dose response (AID 624134); assay type: functional
[6] = Luminescence Cell-Based Dose Retest to Confirm Inhibitors of Cancer Stem Cells. [Related pubchem assays (depositor defined):AID2717, AID2721]; assay type: functional; details: Homo sapiens
[7] = non-specific 3'UTR reporter inhibition in Clone20-Shn3RL – cell-based, Renilla luciferase, cherry-picked, counter-screen for Shn3 inhibitor project, dose response (AID 624133); assay type: functional
INS1 = test: INS-1E survival protection against cytokine death – cell-based, luminescence, retest, dose response (AID 449756); assay type: functional; details: Rattus norvegicus;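 note: cell death triggered by IL-1 beta plus TNF-alpha plus IFN-gamma mixture; protective hits raise ATP signal compared with cytokine alone wells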
[8] = luciferase reporter signal suppression in cells – H4 neuroglioma cells, luminescence, dose response (AID 1990); assay type: functional, cell-based
[9] = alpha-synuclein stem-loop luciferase translation blockers – H4 neuroglioma cells, luminescence, confirmation (AID 1988); assay type: functional, cell-based
[10] = reduction of Shn3 3'UTR-driven luciferase in osteoblasts – cell-based, Clone20 osteoblasts, firefly luciferase, cherry-picked, dose response (AID 624132); assay type: functional;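 note: firefly luciferase luminescence from reporter carrying the Shn3 3'UTR in osteoblasts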
Cytochrome P450 2C9 = Cytochrome P450 2C9 (Homo sapiens, UniProt P11712)
Cytochrome P450 2C19 = Cytochrome P450 2C19 (Homo sapiens, UniProt P33261); test: Cytochrome panel assay with activity outcomes. Panel member name: p450-cyp2c19 Compounds with AC50 equal or less than 10 uM are considered active; assay type: functional; details: read-out: AC50
Cytochrome P450 2D6 = Cytochrome P450 2D6 (Homo sapiens, UniProt P10635);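 note: CYP2D6 member of a cytochrome P450 panel assay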
H9c2 = test: cells; assay type: functional, cell-based; details: Rattus norvegicus, H9c2, Myocardium;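 note: confirmatory concentration-response retest of ultra-high-throughput screening hits for modulation of myocardial damage; cell death induced by hydrogen peroxide oxidative stress; compound pretreatment for 60 min then peroxide exposure for 2 h; potency is for protecting the cells against peroxide damage rather than for killing them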
Fatty acid synthase [11] = molecular target: T4, Fatty acid synthase (Homo sapiens, UniProt P49327); test: inhibition of human FAS-TE enzyme activity – biochemical, kinetic fluorescence intensity, dose response (AID 624326); assay type: functional;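 note: rate of fluorescence rise from hydrolysis of a fluorogenic O-methyl fluorescein ester substrate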
Fatty acid synthase [12] = molecular target: T4, Fatty acid synthase; test: inhibition of human FAS-TE enzyme activity – biochemical, endpoint fluorescence intensity, uHTS hits, dose response (AID 624327); assay type: functional;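 note: fluorescence from hydrolysis of an O-methyl fluorescein acyl ester substrate by the enzyme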
BJ = test: cells; assay type: functional, cell-based, Homo sapiens; details: bj

FAD-linked sulfhydryl oxidase ALR, sequence (P55789 whole entry): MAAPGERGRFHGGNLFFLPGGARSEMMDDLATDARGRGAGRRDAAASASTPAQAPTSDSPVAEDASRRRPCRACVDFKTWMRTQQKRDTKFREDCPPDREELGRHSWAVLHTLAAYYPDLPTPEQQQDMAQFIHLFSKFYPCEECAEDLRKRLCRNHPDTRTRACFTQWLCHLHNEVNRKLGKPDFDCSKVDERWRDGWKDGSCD
Cytochrome P450 2C9, sequence (P11712 whole entry): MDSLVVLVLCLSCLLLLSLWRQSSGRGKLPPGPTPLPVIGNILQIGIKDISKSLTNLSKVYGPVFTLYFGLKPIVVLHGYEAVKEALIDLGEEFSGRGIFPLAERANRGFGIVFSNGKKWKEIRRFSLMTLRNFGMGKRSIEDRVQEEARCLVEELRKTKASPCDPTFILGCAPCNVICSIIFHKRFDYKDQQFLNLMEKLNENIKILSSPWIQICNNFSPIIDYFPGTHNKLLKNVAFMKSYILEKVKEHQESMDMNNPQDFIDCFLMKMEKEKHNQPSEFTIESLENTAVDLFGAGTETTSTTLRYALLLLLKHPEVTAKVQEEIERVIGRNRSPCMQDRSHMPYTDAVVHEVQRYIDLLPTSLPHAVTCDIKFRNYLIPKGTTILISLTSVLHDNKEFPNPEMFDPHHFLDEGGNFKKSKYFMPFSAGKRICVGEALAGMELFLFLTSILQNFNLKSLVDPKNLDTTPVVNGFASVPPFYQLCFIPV
T4 sequence (P49327 whole entry): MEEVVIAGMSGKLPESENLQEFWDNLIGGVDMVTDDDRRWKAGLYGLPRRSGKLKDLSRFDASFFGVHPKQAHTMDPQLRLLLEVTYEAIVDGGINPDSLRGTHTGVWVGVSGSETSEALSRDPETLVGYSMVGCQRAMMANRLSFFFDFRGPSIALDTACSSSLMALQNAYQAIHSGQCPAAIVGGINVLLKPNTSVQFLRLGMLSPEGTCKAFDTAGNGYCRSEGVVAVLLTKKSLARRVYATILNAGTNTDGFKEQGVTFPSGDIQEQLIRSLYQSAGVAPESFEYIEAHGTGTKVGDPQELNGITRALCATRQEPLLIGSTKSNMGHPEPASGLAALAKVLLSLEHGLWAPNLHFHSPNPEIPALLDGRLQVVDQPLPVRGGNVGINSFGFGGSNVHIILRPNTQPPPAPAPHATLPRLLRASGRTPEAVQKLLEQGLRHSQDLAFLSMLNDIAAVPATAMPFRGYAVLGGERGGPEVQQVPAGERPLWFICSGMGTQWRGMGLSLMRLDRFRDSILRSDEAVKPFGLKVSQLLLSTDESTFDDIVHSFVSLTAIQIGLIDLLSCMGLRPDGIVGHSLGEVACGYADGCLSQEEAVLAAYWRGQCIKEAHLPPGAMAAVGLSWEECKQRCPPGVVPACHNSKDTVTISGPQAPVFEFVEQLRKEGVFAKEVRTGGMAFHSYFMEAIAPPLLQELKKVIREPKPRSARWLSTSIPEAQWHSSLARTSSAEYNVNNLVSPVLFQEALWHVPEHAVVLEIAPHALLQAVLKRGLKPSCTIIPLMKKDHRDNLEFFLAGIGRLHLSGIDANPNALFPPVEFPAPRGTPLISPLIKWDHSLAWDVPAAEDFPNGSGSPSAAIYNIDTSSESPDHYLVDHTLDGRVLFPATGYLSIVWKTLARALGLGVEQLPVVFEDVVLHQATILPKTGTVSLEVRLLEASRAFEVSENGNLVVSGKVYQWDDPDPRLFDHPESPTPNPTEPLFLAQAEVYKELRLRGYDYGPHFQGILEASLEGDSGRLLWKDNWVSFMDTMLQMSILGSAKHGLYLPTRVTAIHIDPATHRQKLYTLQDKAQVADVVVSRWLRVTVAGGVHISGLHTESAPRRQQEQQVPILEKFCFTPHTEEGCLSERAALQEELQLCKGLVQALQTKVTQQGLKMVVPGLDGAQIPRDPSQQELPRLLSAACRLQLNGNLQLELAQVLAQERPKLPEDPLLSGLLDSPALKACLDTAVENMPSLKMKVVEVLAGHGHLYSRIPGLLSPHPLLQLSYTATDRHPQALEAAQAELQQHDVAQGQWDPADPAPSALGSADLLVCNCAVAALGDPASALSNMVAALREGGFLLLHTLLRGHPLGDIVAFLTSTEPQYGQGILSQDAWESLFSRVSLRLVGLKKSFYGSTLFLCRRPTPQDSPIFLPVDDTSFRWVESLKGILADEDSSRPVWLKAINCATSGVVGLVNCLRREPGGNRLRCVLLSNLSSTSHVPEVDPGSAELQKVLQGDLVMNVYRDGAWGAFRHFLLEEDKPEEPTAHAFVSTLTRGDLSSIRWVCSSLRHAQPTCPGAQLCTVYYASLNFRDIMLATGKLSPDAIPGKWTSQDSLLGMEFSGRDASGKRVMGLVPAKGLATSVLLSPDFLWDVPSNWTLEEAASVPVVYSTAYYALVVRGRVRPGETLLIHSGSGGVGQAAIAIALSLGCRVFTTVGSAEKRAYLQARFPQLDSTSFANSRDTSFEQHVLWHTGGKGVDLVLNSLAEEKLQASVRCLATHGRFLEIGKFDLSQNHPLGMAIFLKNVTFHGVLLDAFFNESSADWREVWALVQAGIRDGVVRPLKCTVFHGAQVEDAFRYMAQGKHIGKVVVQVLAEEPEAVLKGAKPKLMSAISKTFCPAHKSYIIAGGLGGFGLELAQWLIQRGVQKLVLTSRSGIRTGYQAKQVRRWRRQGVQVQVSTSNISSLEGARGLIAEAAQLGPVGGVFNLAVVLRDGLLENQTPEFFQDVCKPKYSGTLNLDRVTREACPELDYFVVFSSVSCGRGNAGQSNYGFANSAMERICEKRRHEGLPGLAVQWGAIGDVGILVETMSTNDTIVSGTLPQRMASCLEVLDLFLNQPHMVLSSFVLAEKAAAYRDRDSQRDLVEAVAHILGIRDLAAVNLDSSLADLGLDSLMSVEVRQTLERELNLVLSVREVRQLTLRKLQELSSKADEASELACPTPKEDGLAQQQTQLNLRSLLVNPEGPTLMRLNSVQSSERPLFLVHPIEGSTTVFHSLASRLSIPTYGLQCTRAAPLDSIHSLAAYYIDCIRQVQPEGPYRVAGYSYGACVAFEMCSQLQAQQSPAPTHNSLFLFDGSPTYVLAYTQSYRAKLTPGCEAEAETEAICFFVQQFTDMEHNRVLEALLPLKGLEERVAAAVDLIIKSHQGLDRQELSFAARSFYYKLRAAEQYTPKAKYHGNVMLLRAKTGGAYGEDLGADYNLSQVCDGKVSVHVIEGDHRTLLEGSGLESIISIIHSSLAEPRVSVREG
Cytochrome P450 2D6, sequence (P10635 whole entry): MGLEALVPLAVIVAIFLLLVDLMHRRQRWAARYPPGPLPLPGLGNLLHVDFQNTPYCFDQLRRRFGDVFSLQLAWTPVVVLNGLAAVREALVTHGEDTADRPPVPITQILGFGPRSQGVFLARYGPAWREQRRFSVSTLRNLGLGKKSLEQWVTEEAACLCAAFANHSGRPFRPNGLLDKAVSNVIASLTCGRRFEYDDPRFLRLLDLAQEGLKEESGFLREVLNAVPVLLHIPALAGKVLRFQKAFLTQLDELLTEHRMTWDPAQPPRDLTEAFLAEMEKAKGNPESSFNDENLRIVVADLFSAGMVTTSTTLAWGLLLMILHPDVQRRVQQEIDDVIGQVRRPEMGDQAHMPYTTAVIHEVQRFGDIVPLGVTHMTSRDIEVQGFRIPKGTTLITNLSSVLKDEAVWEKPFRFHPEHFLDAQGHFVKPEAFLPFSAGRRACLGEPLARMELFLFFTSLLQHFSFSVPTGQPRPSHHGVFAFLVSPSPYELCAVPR
Cytochrome P450 2C19, sequence (P33261 whole entry): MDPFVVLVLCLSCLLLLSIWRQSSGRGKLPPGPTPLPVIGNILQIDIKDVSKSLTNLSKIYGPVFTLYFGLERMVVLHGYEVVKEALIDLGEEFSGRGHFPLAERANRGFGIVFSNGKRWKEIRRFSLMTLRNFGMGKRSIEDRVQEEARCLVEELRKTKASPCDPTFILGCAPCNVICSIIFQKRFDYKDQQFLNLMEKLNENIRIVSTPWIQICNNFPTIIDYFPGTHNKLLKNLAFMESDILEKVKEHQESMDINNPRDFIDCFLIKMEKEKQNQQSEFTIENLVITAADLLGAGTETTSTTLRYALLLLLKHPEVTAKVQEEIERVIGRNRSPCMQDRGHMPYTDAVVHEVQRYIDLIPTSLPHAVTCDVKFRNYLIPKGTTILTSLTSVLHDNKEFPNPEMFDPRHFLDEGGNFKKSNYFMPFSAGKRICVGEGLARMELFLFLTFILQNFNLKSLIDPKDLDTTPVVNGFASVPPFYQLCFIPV

COc1ccc(N2CCN(C(=O)c3cc4c(-c5cccc(OC)c5)nn(C)c4s3)CC2)cc1
IC50 (Protein skinhead-1): > 100 µM (inactive)

NC(=O)c1ccc(CSc2nc3ccccc3s2)cc1
AC50 [1]: 0.73 µM (active)

O=C(NCc1cccnc1)C1CCCN(Cc2cnn(-c3ccccc3)c2-n2cccc2)C1 (stereo not drawn)
EC50 [2]: 1.68 µM (active)

CCN1CCN(c2ccc(S(=O)(=O)N3CCCCC3)cc2NC(=O)c2cccc(Cl)c2)CC1
EC50 [2]: 3.76 µM (active)

CCOC(=O)C(Oc1ccc2c(-c3ccc(OC)cc3)cc(=O)oc2c1C)c1ccccc1 (stereo not drawn)
IC50 (Protein skinhead-1): > 100 µM (inactive)

Cc1nc(Cc2nnc(SCC(=O)N3CCN(c4ccc(O)cc4)CC3)o2)cs1
IC50 [3]: 30 µM (active)

Sc1nnc(-c2ccc3ccccc3n2)o1
AC50 [1]: 0.01 µM (active)

COc1ccc(CNCCC(c2ccc(OC(C)C)cc2)c2ccccc2OC)cc1 (stereo not drawn)
EC50 [4]: 113 µM (active) | AC50 [5]: 13.3 µM (active) | AC50 [6]: 5.81 µM (active) | AC50 [7]: 20.9 µM (active) | AC50 (INS1): 7.26 µM (active) | EC50 [8]: 11.4 µM (active) | EC50 [9]: 8.9 µM (active) | AC50 [10]: 3.86 µM (active)

Fc1ccc(CSc2nnc(-c3cccs3)o2)cc1
IC50 (Protein skinhead-1): 27.3 µM (active)

COc1cccc(CN(C)C(=O)c2cccc(S(=O)(=O)N3CCN(Cc4ccccc4)CC3)c2)c1OC
AC50 [5]: 63.3 µM (active) | AC50 [7]: 8.32 µM (active) | AC50 [10]: 4.94 µM (active)

COc1ccc(C(CNCC(O)COc2c(C)ccc(C)c2C)N(C)C)cc1 (stereo not drawn)
EC50 [2]: 1.19 µM (active)

CSc1ccc(CN2CCC(C(=O)NCc3ccc(C)cc3)CC2)cc1
IC50 [3]: 108 µM (active)

O=S(=O)(c1ccc2ccccc2c1)N1CCN=C1SCc1cccnc1
AC50 [1]: 0.072 µM (active)

CCOC(=O)c1ccc(CNC(=O)C2CCCCC2C(=O)OCC(F)(F)F)o1 (stereo not drawn)
AC50 (Cytochrome P450 2C9): inconclusive | AC50 (Cytochrome P450 2C19): 39.8 µM (inconclusive) | AC50 (Cytochrome P450 2D6): 25.1 µM (inconclusive)

O=C(Nc1nc(-c2ccccn2)cs1)c1cccc(S(=O)(=O)N2CCOCC2)c1
AC50 [5]: 5.28 µM (active) | AC50 [7]: 2.89 µM (active) | IC50 (H9c2): 21 µM (active) | AC50 [10]: 1.52 µM (active)

Cc1ccc(-c2nc(-c3ccncc3)no2)cc1
IC50 (Protein skinhead-1): 13.9 µM (active)

COc1cc(NC(=O)C(c2ccccc2)c2ccccc2)c(C(=O)O)cc1OC
AC50 [1]: 10.2 µM (active)

Cc1ccccc1OCCn1c(S)nc2c(N)ncnc21
IC50 [3]: 41.6 µM (active)

c1ccc(CNc2ccc3c(c2)ncn3C2CCCCC2)nc1
AC50 [1]: 1.2 µM (active)

Cc1cc(N(CCCl)CCCl)ccc1C=Cc1ccncn1
IC50 (Protein skinhead-1): > 100 µM (inactive)

c1ccc2sc(N3CCNCC3)nc2c1
EC50 [2]: 0.473 µM (active)

CC(C)Oc1ccc(S(=O)(=O)N2CCCCC2)cc1NC(=O)CN1CCCC1c1cccs1 (stereo not drawn)
AC50 [5]: > 70 µM (inactive) | AC50 [7]: 20.6 µM (active) | AC50 (INS1): 5.76 µM (active) | AC50 [10]: 7.88 µM (active)

COc1cc(/C=C/C(=O)OCC(=O)Nc2ccc3c(c2)OCO3)ccc1O
IC50 [3]: 48.2 µM (active)

COc1ccccc1-c1nnc(-c2ccc(F)cc2)o1
IC50 (Protein skinhead-1): 90.4 µM (inactive)

COc1ccc(C(CNC(=O)c2ccc3c(c2)OCCO3)N(C)C)cc1 (stereo not drawn)
EC50 [2]: 0.237 µM (active)

Cc1ccc(CNC(=O)CN2C(=O)COc3ccc(C)cc32)cc1
AC50 (Cytochrome P450 2C9): inconclusive | AC50 (Cytochrome P450 2D6): 28.2 µM (inconclusive)

Cc1ccc(CNc2nc(NCC3CC3)nc3ccsc23)c(C)c1
AC50 [5]: 40.4 µM (active) | AC50 [7]: 6.26 µM (active) | AC50 [10]: 3.95 µM (active)

Cc1nn(-c2ccccc2)c(C)c1-c1cc(C(=O)N/N=C/c2ccc(O)cc2)[nH]n1
AC50 [1]: 4.12 µM (active)

Cc1ccc(S(=O)(=O)N2C[C@H]3[C@H]4C(=O)N(c5ccccc5)C(=O)[C@H]4CC(=O)[C@H]3[C@@H]2c2cccc3ccccc23)cc1
IC50 (Protein skinhead-1): > 100 µM (inactive) | IC50 (Fatty acid synthase [11]): 15.6 µM (active) | IC50 (Fatty acid synthase [12]): 21.6 µM (inactive)

COc1cccc(/C=N/n2c(=S)n(C)c3cc(C)c(C)cc32)c1OC
AC50 (Cytochrome P450 2C9): inconclusive

COc1cc2c(c(OC)c1OC)-c1ccc(=O)c(O)cc1C(NC(C)=O)CC2 (stereo not drawn)
EC50 (BJ): 0.126 µM (inconclusive)
